The values that follow come from a flash point compilation (Sun et al. 2020).

Molecules are shown by their SMILES.

Assay in data set [1]: not given
This is another data set of the same source.

Assay in data set [2]: not given
The source holds these as a separate data set.

Assay in data set [3]: not given
This is another data set of the same source.

The compound `CC(Cl)(Cl)[N+](=O)[O-]` [1,1-Dichloro-1-nitroethane] yielded a flash point of 76.00 °C. On the same count and under the same terms, the figure for `Clc1cc(Cl)c(Cl)cc1Cl` [1,2,4,5-Tetrachlorobenzene] is 155.00 °C; for `CC(Cl)CCl` (stereo not given) [1,2-Dichloropropane] it is 16.00 °C; for `CC(O)CO` (stereo not given) [1,2-Propanediol] it is 99.00 °C.

On to `CC(Cl)=CCCl` [1,3-Dichloro-2-butene], for which the flash point was determined as 27.00 °C.

The compound `C=CCC=CC` [1,4-Hexadiene] showed a flash point of -21.00 °C. As for `C1=CCC=CC1` [1,4-cyclohexadiene], the flash point in data set [1] is -11 °C; in data set [2], -6 °C. For `C1=CCCC=CCC1` [1,5-cyclooctadiene], in that order: 35 °C and 32 °C.

Turning to `C#CCCCCCC#C` [1,8-nonadiyne], the flash point in data set [1] was determined as 42 °C; in data set [2], 41 °C.

`C=CCC` [1-Butene] showed a flash point of -80.00 °C.

`CCC(Cl)[N+](=O)[O-]` (stereo not given) [1-Chloro-1-nitropropane] had a flash point of 62.00 °C. The same measure, in the same setting: the figure for `O=[N+]([O-])c1ccc(Cl)c([N+](=O)[O-])c1` [1-Chloro-2,4-dinitrobenzene] is 194.00 °C; for `Nc1cccc2ccccc12` [1-Naphthylamine] it is 157.00 °C. Same read-out and setting: under `CCC[N+](=O)[O-]` [1-Nitropropane] stands 49.00 °C. Take `C#CCCCCCCCC` [1-decyne]: the figures for the flash point in data set [1] and in data set [2] were 48 °C and 50 °C, respectively. In the same order, the values of `C=CCCCCCCCCCC` [1-dodecene] are 73 °C and 77 °C.

For the compound `CC1=CCCCC1` [1-methylcyclohexene], the flash point in data set [1] was -1 °C; in data set [2], -3 °C. For `CC1=CCCC1` [1-methylcyclopentene], in that order: -19 °C and -17 °C. Turning to `CC(C)=CC=C(C)C` [2,5-dimethyl-2,4-hexadiene], the figures for the flash point in data set [1] and in data set [2] were 24 °C and 29 °C, respectively. For `CC#CCCC` [2-hexyne], in that order: -10 °C and -11 °C.

For `COCCOC(C)=O` [2-methoxyethylacetate], the values for the flash point in data set [1] and in data set [2] were 43 °C and 45 °C, respectively. In the same order, the values of `CC(C)(C)S` [2-methyl-2-propanethiol] are -24 °C and -26 °C. Turning to `CC(CCO)CC(C)(C)C` (stereo not given) [3,5,5-trimethyl-1-hexanol], the flash point in data set [1] stood at 80 °C; in data set [2], 79 °C.

As to `ClC1CCCCC1` [chlorocyclohexane], the figures for the flash point in data set [1] and in data set [2] were 28 °C and 32 °C, respectively. In the same order, the values of `C1CCCCCCCCC1` [cyclodecane] are 59 °C and 65 °C.

On to `NCCNCCN` [diethylenetriamine], for which the flash point in data set [1] came to 90 °C; in data set [2] it was 97 °C. Regarding `CC1CCCC1` [methylcyclopentane], the results for the flash point in data set [3], in data set [1] and in data set [2] were -24.00 °C, -23 °C and -29 °C, respectively. Consider `C=C1CCCC1` [methylenecyclopentane], for which the flash point is -18 °C in data set [1] and -19 °C in data set [2]. Take `C1COCCN1` [morpholine]: the flash point in data set [3] was 38.00 °C; in data set [2] it was 35 °C. As to `CCCCC=O` [pentanal], the flash point is 12.00 °C in data set [3] and 8 °C in data set [2]. Take `CC(=O)OC(C)(C)C` [tert-butyl acetate]: the results for the flash point in data set [3] and in data set [2] were 22.00 °C and 15 °C, respectively. Take `CCCCCCCCCCCCC` [tridecane]: the flash point in data set [3] was 79.00 °C; in data set [1], 94 °C; in data set [2], 102 °C.
